# Laboratory results as given in ChEMBL document CHEMBL1201862, “PubChem BioAssay data set” (2004).
#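 Tested at 5 concentrations; 48 h exposure; 96-well plates; endpoints linearly interpolated, else capped at highest concentration. Here, GI50 denotes the concentration required for 50% inhibition of growth.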 Activity calls are given as the source filed them. No stated cut-off is given here; in the data, active = GI50 up to about 1.1 µM and inactive = higher.
# Experiments:
# Test in all cases: growth of human tumour cells (NCI), 48 h
# ACHN = system: ACHN
# HCC 2998 = system: HCC 2998
# HCT-116 = system: HCT-116
# HOP-92 = system: HOP-92
# Hs-578T = system: Hs-578T
# K562 = system: K562
# MCF7 = system: MCF7
# Malme-3M = system: Malme-3M
# NCI-H522 = system: NCI-H522
# OVCAR-3 = system: OVCAR-3
# OVCAR-4 = system: OVCAR-4
# SF-268 = system: SF-268
# SF-539 = system: SF-539
# SK-MEL-28 = system: SK-MEL-28
# SK-MEL-2 = system: SK-MEL-2
# SK-OV-3 = system: SK-OV-3
# SNB-75 = system: SNB-75
# SR = system: SR
# TK-10 = system: TK-10
# UACC-257 = system: UACC-257
SMILES,GI50 (ACHN),GI50 (HCC 2998),GI50 (HCT-116),GI50 (HOP-92),GI50 (Hs-578T),GI50 (K562),GI50 (MCF7),GI50 (Malme-3M),GI50 (NCI-H522),GI50 (OVCAR-3),GI50 (OVCAR-4),GI50 (SF-268),GI50 (SF-539),GI50 (SK-MEL-28),GI50 (SK-MEL-2),GI50 (SK-OV-3),GI50 (SNB-75),GI50 (SR),GI50 (TK-10),GI50 (UACC-257)
Cc1c(Cl)cc(C(C)(C)C)c(O)c1Cc1c(C)c(Cl)cc(C(C)(C)C)c1O,1.29 µM (inactive),0.796 µM (active),0.536 µM (active),0.304 µM (active),0.635 µM (active),0.752 µM (active),1 µM (active),0.406 µM (active),0.299 µM (active),0.436 µM (active),1.26 µM (inactive),1.74 µM (inactive),1.97 µM (inactive),2.33 µM (inactive),1.73 µM (inactive),2.98 µM (inactive),1.5 µM (inactive),2.18 µM (inactive),2.04 µM (inactive),1.36 µM (inactive)
COC(=O)C1=C(C)NC(C)=C([N+](=O)[O-])C1c1cccc(NO)c1 (stereo not given),3.1 µM (inactive),4.53 µM (inactive),2.37 µM (inactive),3.6 µM (inactive),2.84 µM (inactive),2.72 µM (inactive),3.94 µM (inactive),4.31 µM (inactive),3.67 µM (inactive),3.9 µM (inactive),6.04 µM (inactive),6.01 µM (inactive),6.11 µM (inactive),4.92 µM (inactive),11.2 µM (inactive),7.38 µM (inactive),6.89 µM (inactive),2.53 µM (inactive),5.12 µM (inactive),4.61 µM (inactive)
COc1cc2c(cc1OCc1ccccc1)NC(=O)[C@@H]1CCCN1C2=O,> 100 µM (inactive),> 100 µM (inactive),> 100 µM (inactive),> 100 µM (inactive),> 100 µM (inactive),> 100 µM (inactive),> 100 µM (inactive),> 100 µM (inactive),> 100 µM (inactive),> 100 µM (inactive),> 100 µM (inactive),> 100 µM (inactive),> 100 µM (inactive),> 100 µM (inactive),> 100 µM (inactive),> 100 µM (inactive),> 100 µM (inactive),> 100 µM (inactive),> 100 µM (inactive),> 100 µM (inactive)
CS(=O)(=O)Nc1ccc2ccccc2c1-c1c(NS(C)(=O)=O)ccc2ccccc12,0.982 µM (active),> 25 µM (inactive),> 18.6 µM (inactive),> 25 µM (inactive),> 25 µM (inactive),> 25 µM (inactive),1.17 µM (inactive),> 25 µM (inactive),> 25 µM (inactive),> 25 µM (inactive),> 25 µM (inactive),> 25 µM (inactive),> 25 µM (inactive),> 25 µM (inactive),> 25 µM (inactive),> 25 µM (inactive),> 19.1 µM (inactive),> 25 µM (inactive),> 25 µM (inactive),> 25 µM (inactive)
